Experimental findings from ChEMBL document CHEMBL1135532, “Synthesis of potent leukotriene A(4) hydrolase inhibitors. Identification of 3-[methyl[3-[4-(phenylmethyl)phenoxy]propyl]amino]propanoic acid” (J Med Chem, 2002) are described below.

Test [1] concerns the target T1, Leukotriene A-4 hydrolase (Homo sapiens, UniProt P09960).
T1 sequence (P09960 whole entry): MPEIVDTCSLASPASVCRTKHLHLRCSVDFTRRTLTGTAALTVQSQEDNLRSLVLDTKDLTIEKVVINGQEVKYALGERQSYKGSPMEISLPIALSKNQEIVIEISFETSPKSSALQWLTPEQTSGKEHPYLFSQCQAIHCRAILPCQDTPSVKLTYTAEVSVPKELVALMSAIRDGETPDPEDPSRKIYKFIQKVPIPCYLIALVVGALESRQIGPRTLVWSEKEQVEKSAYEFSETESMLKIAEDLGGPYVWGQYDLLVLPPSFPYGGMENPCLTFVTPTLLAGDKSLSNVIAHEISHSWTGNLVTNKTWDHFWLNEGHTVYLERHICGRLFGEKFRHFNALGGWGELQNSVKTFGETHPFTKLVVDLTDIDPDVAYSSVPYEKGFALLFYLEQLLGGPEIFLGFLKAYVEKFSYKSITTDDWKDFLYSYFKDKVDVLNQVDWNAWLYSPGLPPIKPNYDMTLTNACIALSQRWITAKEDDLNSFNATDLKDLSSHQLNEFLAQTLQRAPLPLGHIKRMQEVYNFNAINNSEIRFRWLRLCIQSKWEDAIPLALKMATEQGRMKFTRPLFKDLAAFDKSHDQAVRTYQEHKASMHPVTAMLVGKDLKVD
Put plainly: Inhibition of human whole blood LTB-4 production (Leukotriene B-4). It counts as functional.

Test [2] concerns the target T1, Leukotriene A-4 hydrolase. Nature of the test: Inhibition of human leukotriene A4 hydrolase (LTA-4).
Test [3] concerns Mus musculus. Put plainly: Percentage inhibition of mouse ex vivo whole blood LTB-4 production (Leukotriene B-4) at a concentration of 10 mg/kg. The test is classed as functional.
Test [4] is filed under the species Mus musculus. Nature of the test: Effective dose measured for mouse ex vivo whole blood LTB-4 production (Leukotriene B-4). It counts as functional.
The species named for test [5] is Mus musculus. Put plainly: Effective dose measured for mouse ex vivo whole blood LTB-4 production; Range is from 3-10. The test is classed as functional.
The species named for test [6] is Mus musculus. Nature of the test: Effective dose measured for mouse ex vivo whole blood LTB-4 production; Range is from 1-3. It counts as functional.
Test [7] is filed under the species Mus musculus. Put plainly: Effective dose measured for mouse ex vivo whole blood LTB-4 production; Range is from 1-3. The test is classed as functional.

As for `CCOC(=O)CCNCCCOc1ccc(Cc2ccccc2)cc1`, the IC50 in test [1] is 450 nM; in test [2], 84 nM.

`c1ccc(-c2ccc(OCCN3CCCC3)cc2)cc1` showed an inhibition in vivo at 10 mg/kg in test [3] of 9%.

For the compound `CN(CCCOc1ccc(Oc2ccccc2)cc1)CCC(=O)O`, the IC50 in test [1] came out at 230 nM; in test [2], 19 nM. The ED90 in test [4] was 3 mg/kg.

As for `CCOC(=O)CNCCCCCOc1ccc(Cc2ccccc2)cc1`, half-maximal inhibition in test [1] (IC50) required 420 nM. In test [4], this compound had an ED90 of 10 mg/kg.

The compound `CN(CCCOc1ccc(Oc2ccc(-c3ncco3)cc2)cc1)CCC(=O)O` gave an IC50 in test [1] of 190 nM. This compound registered an ED90 in test [4] of at least 10 mg/kg.

As for `CCOC(=O)CCNCCCCOc1ccc(Cc2ccccc2)cc1`, the IC50 in test [1] was 76 nM. In addition, in test [4], the ED90 came to 3 mg/kg.

Turning to `CCOC(=O)CNCCCOc1ccc(Cc2ccccc2)cc1`, in test [1], the IC50 stood at 1100 nM. In test [3], the inhibition in vivo at 10 mg/kg amounted to 22%.

Turning to `CCOC(=O)CCCNCCOc1ccc(Cc2ccccc2)cc1`, the IC50 in test [1] was determined as 2500 nM; in test [2] it was 3700 nM.

`CCOC(=O)CCN(C)CCCCOc1ccc(Cc2ccccc2)cc1`: the IC50 in test [1] is 520 nM; in test [2], over 10000 nM.

For `CCOC(=O)CNCCCCOc1ccc(Cc2ccccc2)cc1`, the IC50 in test [1] stood at 350 nM. The same compound yielded an ED90 in test [4] of at least 10 mg/kg.

For the compound `CN(CCCOc1ccc(Oc2ccc(F)cc2)cc1)CCC(=O)O`, the IC50 stood at 210 nM in test [1] and 160 nM in test [2]. The compound further showed an ED90 in test [4] of 3 mg/kg.

As for `O=C(O)CNCCCCOc1ccc(Cc2ccccc2)cc1`, the IC50 in test [1] was determined as 230 nM; in test [2], 1.3 nM. Also, the ED90 in test [4] was at least 10 mg/kg.

On to `COC(=O)CCNCCOc1ccc(Cc2ccccc2)cc1`, for which, in test [1], it took 590 nM to reach half-maximal inhibition (IC50).

On to `COC(=O)CCN(C)CCCOc1ccc(Cc2cccs2)cc1`, for which, in test [1], it took 95 nM to reach half-maximal inhibition (IC50). This compound registered an ED90 in test [5] of 10 mg/kg.

Turning to `CN(CCCOc1ccc(Cc2ccccc2)cc1)CCC(=O)NS(C)(=O)=O`, the IC50 in test [1] was 70 nM. Further, the ED90 in test [4] was at most 1 mg/kg.

As to `CCOC(=O)CNCCOc1ccc(Cc2ccccc2)cc1`, the IC50 in test [1] is over 30000 nM; in test [2] it was 2500 nM.

For the compound `CN(CCCOc1ccc(Cc2ccccc2)cc1)CCS(N)(=O)=O`, the results for the IC50 in test [1] and in test [2] were 740 nM and 4 nM, respectively. The compound further displayed an inhibition in vivo at 10 mg/kg in test [3] of 84%.

For the compound `COC(=O)CCN(C)CCCOc1ccc(Cc2cccnc2)cc1`, in test [3], the inhibition in vivo at 10 mg/kg is 58%.

Turning to `O=C(O)CCNCCCCOc1ccc(Cc2ccccc2)cc1`, the concentration for half-maximal inhibition (IC50) in test [1] amounted to 490 nM. This compound also came in with an inhibition in vivo at 10 mg/kg in test [3] of 70%.

As for `CN(CCCOc1ccc(Oc2ccc(-c3ccccc3)cc2)cc1)CCC(=O)O`, the values for the IC50 in test [1] and in test [2] were 190 nM and under 0.5 nM, respectively. Also, the ED90 in test [4] worked out at 10 mg/kg.

For `CN(CCCOc1ccc(Cc2ccccc2)cc1)CCn1cnnn1`, the IC50 in test [1] was determined as 560 nM; in test [2] it was 1650 nM.

In turn, `O=C(O)CCNCCCOc1ccc(Cc2ccccc2)cc1` gave an IC50 in test [1] of 280 nM. Besides, the ED90 in test [4] was at least 10 mg/kg.

For `CCOC(=O)CCCCNCCOc1ccc(Cc2ccccc2)cc1`, the IC50 in test [1] came out at 2500 nM; in test [2], 10700 nM.

In test [6], `CN(CCCOc1ccc(Cc2ccccc2)cc1)CCC(=O)O.Cl` showed an ED90 of 3 mg/kg.

Turning to `COC(=O)CCCN(C)CCOc1ccc(Cc2ccccc2)cc1`, the values for the IC50 in test [1] and in test [2] were 460 nM and 450 nM, respectively. The ED90 in test [4] was at least 10 mg/kg.

Compound `CN(CCCOc1ccc(Cc2ccc(F)cc2)cc1)CCC(=O)O` had an IC50 in test [1] of 190 nM. This compound also gave an ED90 in test [4] of at least 10 mg/kg.

Take `COC(=O)CCN(C)CCCOc1ccc(Cc2ccsc2)cc1`: the IC50 was found to be 250 nM in test [1] and 870 nM in test [2]. The compound further gave an ED90 in test [7] of 3 mg/kg.

Consider `CCOC(=O)CN(C)CCCCOc1ccc(Cc2ccccc2)cc1`, for which the IC50 in test [1] was found to be 3300 nM; in test [2], 6600 nM.

For `CN(CCCOc1ccc(Cc2ccsc2)cc1)CCC(=O)O`, in test [5], the ED90 was found to be 10 mg/kg.

Regarding `CN(CCCCOc1ccc(Cc2ccccc2)cc1)CC(=O)O`, the IC50 came out at 450 nM in test [1] and 110 nM in test [2].

Take `CN(CCCOc1ccc(Cc2ccccc2)cc1)CCC(=O)NS(=O)(=O)c1ccccc1`: the IC50 in test [1] turned out to be 75 nM. In test [4], the ED90 is 3 mg/kg.

As for `CCOC(=O)CCN(C)CCCOc1ccc(Cc2ccccc2)cc1`, the IC50 in test [1] is 110 nM. Further, in test [5], the ED90 stood at 10 mg/kg.

On to `CN(CCCOc1ccc(Cc2ccccc2)cc1)CCC(N)=O`, for which the results for the IC50 in test [1] and in test [2] were 110 nM and 7 nM, respectively. In test [3], this compound came in with an inhibition in vivo at 10 mg/kg of 98%.

`c1coc(-c2ccc(Oc3ccc(OCCN4CCCC4)cc3)cc2)n1` showed an inhibition in vivo at 10 mg/kg in test [3] of 93%.

For `CN(CCCOc1ccc(Cc2cccs2)cc1)CCC(=O)O`, in test [5], the ED90 came out at 10 mg/kg.

`CN(CCCOc1ccc(Oc2ccc(-c3nccs3)cc2)cc1)CCC(=O)O`: the IC50 in test [1] amounted to 72 nM. The same compound came in with an inhibition in vivo at 10 mg/kg in test [3] of 87%.

On to `CN(CCCOc1ccc(Cc2ccccc2)cc1)CCS(=O)(=O)O`, for which the IC50 in test [1] worked out at 5200 nM; in test [2], 220 nM.

Broadly, the IC50 is the concentration at which inhibition is half-maximal. Read a low IC50 as inhibition by little substance. For orientation: inhibition in vivo means the share of the control response that was lost under treatment.
